Patent US10821152B2, “Methods, agents and compositions for treatment of inflammatory conditions” (Betanien Hospital, priority 2014, dated 2020)
Non-standard residues stand in square brackets, D forms with d. Residues, ends and D or L forms follow the SMILES beside them. *: point of attachment. dPhe(4-NHCONH2) = NC(=O)Nc1ccc(C[C@@H](N)C(=O)O)cc1; Dihydroorotyl(S) = O=C1C[C@@H](C(=O)*)NC(=O)N1; dPhe(4-Cl) = N[C@H](Cc1ccc(Cl)cc1)C(=O)O; Phe(4-NH2) = Nc1ccc(C[C@H](N)C(=O)O)cc1; d2Nal = N[C@H](Cc1ccc2ccccc2c1)C(=O)O; Lys(iPr) = CC(C)NCCCC[C@H](N)C(=O)O; d3Pal = N[C@H](Cc1cccnc1)C(=O)O

Columns and labels:
[1] = system: patient with systemic lupus erythematosus; assay: Treatment of lupus patient with degarelix; assay type: in vivo, human
Description: The patient has a medical history of a multimorbid patient. Systemic lupus erythematosus (SLE) was diagnosed in 1988 based on Raynauds, skin changes, arthralgia, high titre lupus anticoagulant, ANA, SSA, and SSB. Chilblain type changes in hands and feet (FIGS. 6-8). […] The patient suffered cardiac arrest in 2012, coronary stenosis was observed. The patient had kidney failure since 2012, required dialysis, stabilized creatinine around 150, osteoporosis, COPD, and is a smoker.
By September 2014, we had no treatment options left. Therefore, we decided to offer […] degarelix. GnRH antagonists have shown anti-inflammatory effects and therefore we considered that degarelix, a depot GnRH antagonist, may have a therapeutic effect in lupus. • Sep. 15, 2014, […] received […] loading dose of degarelix, 240 mg sc. Assessment of Response
Proteinuria decline is linked to improved lupus nephritis outcomes. Korbet et al studied 61 patients in a controlled trial comparing standard therapy with plasmapheresis for severe lupus nephritis. […] They had constant, increasing proteinuria in 2014.

[2] = system: patient with multiple sclerosis; assay: Treatment of progressive multiple sclerosis with Degarelix, with concomitant Famprydine; assay type: in vivo, human; conditions: MS patient
Experimental: • person, diagnosed with multiple sclerosis (MS). Their MS was of the progressive type; characterized by a steady deterioration in function. • Fulfilled the 2010 McDonald Criteria for the diagnosis of MS 1. Experimental Treatment • So far results of clinical trials for progressive MS have generally been disappointing. Currently, there is no FDA approved treatment for progressive MS disease. • December 2014 received first dose of Degarelix 240 mg sc. • Received Degarelix 80 mg s.c every two weeks thereafter. Difficulties in Assessing Response in Progressive MS • Almost all trials in progressive MS show a worsening in function over time. The primary endpoint of these trials is usually to be able to show less worsening in the active treatment group compared to the placebo/other treatment group. Worsening is often defined as an increase in the Expanded Disability Status Scale (EDSS). EDSS is severely restrictive as an outcome measure for trials in progressive sclerosis.^2 Trials have not shown improvements in the EDSS or function in MS patients.^2 Optimal outcome measures in progressive MS are open to debate. • Effective imaging outcomes in clinical trials have allowed for the development of treatments for the relapsing-remitting type of MS. […] One of the most important factors in choosing outcome measures for these patients is the meaningfulness to patients. Assessment of Response at 6 Weeks
This was particularly evident in their ability to raise their feet onto a step, physiotherapy exercises, and dressing. In the past year, they previously had always required their spouse's help to climb a step at home, or to carry out certain lower limb exercises with their physiotherapist. By 4 weeks of GnRH antagonist treatment, they no longer required their spouse's help/physiotherapist's help to perform these activities. They climbed onto a step unaided at […] checkup. The improvement started at around 4 weeks after the initiation of therapy, and continued to improve further by 6 weeks. Expanded Disability Status Scale (EDSS): • This patient's EDSS has remained stable at 6.5, as expected over such a short time period of 6 weeks. A score of 6.5 is equivalent to only being able to walk with the aid of a walker, as in their case. This was evident at baseline and 6 weeks. Multiple Sclerosis Impact Scale 29 (MSIS-29): • Patient-reported outcomes are of increasing importance in trials of progressive multiple sclerosis.^2The most frequently used global patient-reported outcome in multiple sclerosis is the MSIS-29.^3 This has been correlated with clinical and imaging metrics specifically in progressive forms of the disease.^4 According to a recent review,^2 patient reported outcomes in trials of progressive multiple sclerosis can be used to validate MRI or clinical metrics, and increased use of patient-reported outcomes in trials of progressive multiple sclerosis will expected to help satisfy regulators' requirements that treatments show relevant benefit for patients. • At baseline, they scored 121 on the MSIS-29. By 6 weeks, their score was reduced to 110. A clinically significant minimal difference is a score change of 8. Therefore this reduction of 11 in their score is considered clinically significant.^5 Multiple Sclerosis Walking Scale-12 (MSWS-12) • The MSWS-12^6 was designed as a disease-specific patient-based instrument for use in clinical trials and clinical practice, to capture the complex impact of MS on walking ability. […] One of the most important attributes of the MSWS-12 in comparison to other assessments of walking in MS patients, is its responsiveness to change. […] By 6 weeks, their score was reduced to 53. This is a 12% improvement. A minimal clinically significant difference has not yet been established. […]

peripheral GnRH = assay: Peripheral GnRH levels by ELISA in patients with autoimmune diseases; assay type: in vivo, human
Description: (§1) We analysed peripheral GnRH levels in patients with various autoimmune diseases using ELISA. […] Due to the nature of ELISA assays, the concentration in pg/mL should not necessarily be regarded as absolute, and may be interpreted as relative.

[3] = as above; assay type: in vivo, human; conditions: RA Pt A
Description: as §1

[4] = system: patients with rheumatoid arthritis; conditions: human, in vivo
Description: They were not taking any therapies for osteoporosis during this period.

CC(=O)N[C@H](Cc1ccc2ccccc2c1)C(=O)N[C@H](Cc1ccc(Cl)cc1)C(=O)N[C@H](Cc1cccnc1)C(=O)N[C@@H](CO)C(=O)N[C@@H](Cc1ccc(NC(=O)[C@@H]2CC(=O)NC(=O)N2)cc1)C(=O)N[C@H](Cc1ccc(NC(N)=O)cc1)C(=O)N[C@@H](CC(C)C)C(=O)N[C@@H](CCCCNC(C)C)C(=O)N1CCC[C@H]1C(=O)N[C@H](C)C(N)=O [Degarelix] (Ac-[d2Nal][dPhe(4-Cl)][d3Pal]S[Phe(4-NH2)](Dihydroorotyl(S))[dPhe(4-NHCONH2)]L[Lys(iPr)]P[dA]-NH2)
ANA (<1) ([1]; 07.11.14): 26↑
FSH (<12) ([1]; 07.11.14): <0.1
LH (<12) ([1]; 07.11.14): <0.3
Total urinary protein ([1]; 07.11.14): 0.17 g/L
ANA (<1) ([1]; 14.10.14): 28↑
FSH (<12) ([1]; 14.10.14): <0.1
Total urinary protein ([1]; 14.10.14): 0.15^2 g/L
FSH (<12) ([1]; 15.09.14 (day of loading dose)): 14↑
LH (<12) ([1]; 15.09.14 (day of loading dose)): 11
Total urinary protein ([1]; 15.09.14 (day of loading dose)): 0.78↑ g/L
ANA (<1) ([1]; 15.09.14 (day of loading dose), out of range): >32↑
FSH (<12) ([1]; 23.09.14): 2
LH (<12) ([1]; 23.09.14): <0.3
Total urinary protein ([1]; 23.09.14): 0.75↑ g/L
proteinuria ([1]; at 2 months): in remission
morning pain ([1]; before treatment): 3.5 h
proteinuria ([1]; by 1 month): complete remission
morning pain ([1]; by 8 weeks): 0 h
morning pain ([1]; by day 5): 1.5 h
morning pain ([1]; by day 10): 0 h
ulcers on hands and feet ([1]; by day 10 of treatment): several ulcers had healed
ANA (<1) ([1]; column 23.09.14 (25.09.14)): 31↑
timed walk ([2]; 29 Apr. 2015, after discontinuing Famprydine on 5 Apr. 2015): 14.0 s
MFIS-5 ([2]; baseline): 20
MSIS-29 ([2]; baseline): 121
MSWS-12 ([2]; baseline): 60
Expanded Disability Status Scale (EDSS) ([2]; baseline and 6 weeks): 6.5
Timed 25 Foot Walk (T25FW) ([2]; baseline, stable Famprydine): 16.7 s
timed walk ([2]; by 2 months, with Famprydine): 14.0 s
timed walk ([2]; by 4 months, with Famprydine): 11.9 s
timed walk ([2]; by 5 months (30 Mar. 2015), with Famprydine): 11.8 s
MFIS-5 ([2]; by 6 weeks): 12
MFIS-5 reduction ([2]; by 6 weeks): 40%
MSIS-29 ([2]; by 6 weeks): 110
MSWS-12 ([2]; by 6 weeks): 53
MSWS-12 improvement ([2]; by 6 weeks): 12%
MSIS-29 score reduction ([2]; by 6 weeks, clinically significant minimal difference 8): 11
General function (patient reported) ([2]; from around 4 weeks to 6 weeks): a general improvement in their function
peripheral GnRH (peripheral GnRH; Multiple Sclerosis Patient B, after 1 month): 210 pg/mL
peripheral GnRH (peripheral GnRH; Multiple Sclerosis Patient B, baseline): 318 pg/mL
peripheral GnRH (peripheral GnRH; Psoriasis Patient C, after 3 months): 274 pg/mL
peripheral GnRH (peripheral GnRH; Psoriasis Patient C, baseline): 300 pg/mL
peripheral GnRH (peripheral GnRH; RA Pt A, after 3 months, 240 mg loading, 80 mg every 2 weeks): 359 pg/mL
peripheral GnRH (peripheral GnRH; RA Pt A, baseline): 394 pg/mL
CRP ([3]; after 3 months): 54 mg/L
DAS score ([3]; after 3 months): 4.2
CRP ([3]; baseline): 142 mg/L
DAS score ([3]; baseline): 8.6
bone mineral density in hips [4]: improved
